Test results taken from the supplement of paper PMC10307832.

Tests used:
Experiment in all cases: relative viability (nuclei count vs DMSO), 5 days (fraction); higher = more cells survive
Zosuquidar + Linsitinib = compound: O[C@@H](COc1cccc2ncccc12)CN1CCN([C@@H]2c3ccccc3[C@@H]3[C@H](c4ccccc42)C3(F)F)CC1 [Zosuquidar] + C[C@]1(O)C[C@@H](c2nc(-c3ccc4ccc(-c5ccccc5)nc4c3)c3c(N)nccn32)C1 [Linsitinib] (partner 1 µM)
Summary of the method: (§1)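 Five library-drug doses in √10 steps were combined with a fixed anchor-drug dose, or a single drug was given alone, by pin tool to lung cancer cell lines in 1536-well plates the day after seeding. Nuclei were stained and counted after 5 days. Relative viability is the nuclei count in treated wells over that in vehicle wells, taken as the median of duplicate plates.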

Kobe2602 + Vorinostat = compound: C1=CC(=CC=C1NC(=S)NNC2=C(C=C(C=C2[N+](=O)[O-])C(F)(F)F)[N+](=O)[O-])F [Kobe2602] + O=C(CCCCCCC(=O)Nc1ccccc1)NO [Vorinostat] (partner 1 µM)
Summary of the method: as §1

[1] = compound: COc1cc2nccc(Oc3ccc(NC(=O)C4(C(=O)Nc5ccc(F)cc5)CC4)cc3)c2cc1OC [Cabozantinib] + N=C(N)NC(=N)NCCc1ccccc1 [Phenformin] (partner 250 µM)
Summary of the method: as §1

Kobe2602 + Phenformin = compound: C1=CC(=CC=C1NC(=S)NNC2=C(C=C(C=C2[N+](=O)[O-])C(F)(F)F)[N+](=O)[O-])F [Kobe2602] + N=C(N)NC(=N)NCCc1ccccc1 [Phenformin] (partner 250 µM)
Summary of the method: as §1

## UMC-11
Zosuquidar + Linsitinib; first compound 0.01 µM
  relative viability: 0.976
Zosuquidar + Linsitinib; first compound 0.03162 µM
  relative viability: 0.98
Zosuquidar + Linsitinib; first compound 0.1 µM
  relative viability: 1.05
Zosuquidar + Linsitinib; first compound 0.3162 µM
  relative viability: 1.07
Zosuquidar + Linsitinib; first compound 1 µM
  relative viability: 1.07
Kobe2602 + Vorinostat; first compound 0.2 µM
  relative viability: 0.428
Kobe2602 + Vorinostat; first compound 0.6325 µM
  relative viability: 0.39
Kobe2602 + Vorinostat; first compound 2 µM
  relative viability: 0.336
Kobe2602 + Vorinostat; first compound 6.325 µM
  relative viability: 0.409
Kobe2602 + Vorinostat; first compound 20 µM
  relative viability: 0.377
[1]; first compound 0.02 µM
  relative viability: 0.309
[1]; first compound 0.06325 µM
  relative viability: 0.35
[1]; first compound 0.2 µM
  relative viability: 0.335
[1]; first compound 0.6325 µM
  relative viability: 0.32
[1]; first compound 2 µM
  relative viability: 0.331
Kobe2602 + Phenformin; first compound 0.2 µM
  relative viability: 0.358
Kobe2602 + Phenformin; first compound 0.6325 µM
  relative viability: 0.336
Kobe2602 + Phenformin; first compound 2 µM
  relative viability: 0.334
Kobe2602 + Phenformin; first compound 6.325 µM
  relative viability: 0.335
Kobe2602 + Phenformin; first compound 20 µM
  relative viability: 0.306
